Reference: ChEMBL document CHEMBL1127467, “Molecular modeling studies of some choline acetyltransferase inhibitors” (J Med Chem, 1994)

target: T1, Choline O-acetyltransferase (Homo sapiens, UniProt P28329); assay: Inhibition of Choline Acetyltransferase; details: read-out: I50
T1 sequence (P28329 whole entry): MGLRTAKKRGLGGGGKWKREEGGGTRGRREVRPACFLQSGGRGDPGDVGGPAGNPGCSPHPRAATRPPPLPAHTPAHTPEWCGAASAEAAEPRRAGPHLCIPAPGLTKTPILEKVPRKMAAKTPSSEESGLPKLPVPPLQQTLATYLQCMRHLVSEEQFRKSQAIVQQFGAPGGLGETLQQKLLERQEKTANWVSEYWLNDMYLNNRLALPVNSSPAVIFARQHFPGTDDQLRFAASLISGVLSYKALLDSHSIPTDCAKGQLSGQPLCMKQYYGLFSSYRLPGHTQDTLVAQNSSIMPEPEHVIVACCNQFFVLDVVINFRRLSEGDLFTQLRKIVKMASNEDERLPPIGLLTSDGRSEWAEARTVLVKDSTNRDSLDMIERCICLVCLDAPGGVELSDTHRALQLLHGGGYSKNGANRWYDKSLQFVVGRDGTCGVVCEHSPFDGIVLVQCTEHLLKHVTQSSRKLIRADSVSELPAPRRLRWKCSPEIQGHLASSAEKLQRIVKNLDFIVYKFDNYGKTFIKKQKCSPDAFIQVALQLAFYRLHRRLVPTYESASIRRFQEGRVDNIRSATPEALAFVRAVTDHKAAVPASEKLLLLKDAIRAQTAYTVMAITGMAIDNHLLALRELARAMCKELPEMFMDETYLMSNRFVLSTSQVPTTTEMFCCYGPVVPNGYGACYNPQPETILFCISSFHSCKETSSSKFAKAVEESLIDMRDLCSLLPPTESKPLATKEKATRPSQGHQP

SMILES	IC50 [µM]
C[n+]1ccc(/C=C/c2cc3ccccc3c3ccccc23)cc1	> 100
C[n+]1ccc(/C=C/c2cccc3ccccc23)cc1	0.4
Cc1c[n+](C)ccc1/C=C/c1ccccc1	5
C[n+]1ccc(/C=C/c2ccccc2)cc1	13.5
COc1ccc(/C=C/c2cc[n+](C)cc2)c2ccccc12	> 100
C[n+]1ccc(/C=C/c2cccc(Cl)c2)cc1	2.3
CCc1c[n+](C)ccc1/C=C/c1ccccc1	19
C[n+]1ccc(/C=C/c2ccccc2)c2ccccc21	3.5
C/C(=C\c1ccccc1)c1cc[n+](C)cc1	> 100
C[n+]1ccc(/C=C/c2ccccc2Cl)cc1	28
C[n+]1ccc(/N=C/c2cccc3ccccc23)cc1	> 100
Cc1c[n+](C)ccc1/C=C/c1cccc2ccccc12	0.4
C[n+]1ccc(/C=N/c2cccc3ccccc23)cc1	1.5
